For 28 molecules, inhibition results are on record in patent US20210393604A1, “NOVEL BENZIMIDAZOLONE COMPOUND AND PHARMACEUTICAL USE THEREOF” (Sumitomo Dainippon Pharma Co., Ltd., priority 2017, published 2021).

Chain of Nav 1.7 (human SCN9A) (Q15858 whole entry): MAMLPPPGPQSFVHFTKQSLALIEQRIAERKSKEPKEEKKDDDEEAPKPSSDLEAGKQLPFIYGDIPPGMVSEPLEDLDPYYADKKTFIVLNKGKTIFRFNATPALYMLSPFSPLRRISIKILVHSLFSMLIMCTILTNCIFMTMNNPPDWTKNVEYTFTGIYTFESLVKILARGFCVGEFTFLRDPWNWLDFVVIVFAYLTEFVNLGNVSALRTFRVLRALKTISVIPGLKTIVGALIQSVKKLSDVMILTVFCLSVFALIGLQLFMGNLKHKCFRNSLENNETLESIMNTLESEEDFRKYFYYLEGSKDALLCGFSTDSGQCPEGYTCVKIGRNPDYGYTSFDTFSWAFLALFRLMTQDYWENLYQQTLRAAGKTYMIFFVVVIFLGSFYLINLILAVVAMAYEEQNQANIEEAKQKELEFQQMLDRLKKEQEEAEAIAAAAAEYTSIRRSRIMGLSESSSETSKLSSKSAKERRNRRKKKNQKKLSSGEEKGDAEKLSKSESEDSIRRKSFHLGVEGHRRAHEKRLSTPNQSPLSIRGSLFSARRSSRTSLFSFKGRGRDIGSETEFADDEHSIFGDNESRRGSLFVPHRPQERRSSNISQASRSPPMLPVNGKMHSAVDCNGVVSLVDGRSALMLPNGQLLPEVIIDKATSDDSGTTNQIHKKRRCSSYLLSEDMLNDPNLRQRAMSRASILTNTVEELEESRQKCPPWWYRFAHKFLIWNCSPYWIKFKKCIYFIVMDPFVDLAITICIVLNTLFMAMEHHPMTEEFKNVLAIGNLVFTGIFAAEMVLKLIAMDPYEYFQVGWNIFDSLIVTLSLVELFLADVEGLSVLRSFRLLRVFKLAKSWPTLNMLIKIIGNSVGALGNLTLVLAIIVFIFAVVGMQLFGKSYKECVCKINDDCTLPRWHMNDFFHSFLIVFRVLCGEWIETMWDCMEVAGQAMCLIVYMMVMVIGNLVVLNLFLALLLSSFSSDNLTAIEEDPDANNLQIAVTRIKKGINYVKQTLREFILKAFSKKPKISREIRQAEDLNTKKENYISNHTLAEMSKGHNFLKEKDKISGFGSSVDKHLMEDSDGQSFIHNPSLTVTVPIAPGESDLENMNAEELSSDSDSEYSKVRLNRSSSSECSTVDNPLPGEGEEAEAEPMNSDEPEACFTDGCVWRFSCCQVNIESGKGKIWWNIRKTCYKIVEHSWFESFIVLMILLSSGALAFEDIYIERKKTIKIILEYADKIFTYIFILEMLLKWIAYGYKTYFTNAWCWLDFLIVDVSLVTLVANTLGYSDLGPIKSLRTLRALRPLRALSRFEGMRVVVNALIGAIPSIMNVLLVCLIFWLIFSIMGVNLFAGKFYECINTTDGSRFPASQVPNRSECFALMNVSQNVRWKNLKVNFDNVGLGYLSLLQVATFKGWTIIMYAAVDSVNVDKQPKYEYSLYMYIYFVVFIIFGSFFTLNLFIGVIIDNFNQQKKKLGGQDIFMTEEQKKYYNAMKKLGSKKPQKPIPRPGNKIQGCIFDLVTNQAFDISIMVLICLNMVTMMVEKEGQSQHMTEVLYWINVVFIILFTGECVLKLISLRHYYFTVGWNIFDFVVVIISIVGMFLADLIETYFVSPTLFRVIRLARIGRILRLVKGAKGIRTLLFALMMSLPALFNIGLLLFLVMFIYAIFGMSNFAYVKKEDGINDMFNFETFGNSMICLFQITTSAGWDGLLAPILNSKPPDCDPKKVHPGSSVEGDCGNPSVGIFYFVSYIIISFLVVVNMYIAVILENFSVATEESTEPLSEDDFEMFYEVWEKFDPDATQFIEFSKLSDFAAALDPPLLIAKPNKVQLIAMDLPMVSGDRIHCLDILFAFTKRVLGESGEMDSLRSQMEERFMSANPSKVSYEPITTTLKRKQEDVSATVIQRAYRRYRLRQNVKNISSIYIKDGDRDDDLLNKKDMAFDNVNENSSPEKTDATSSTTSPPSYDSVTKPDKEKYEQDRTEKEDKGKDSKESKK

The target in this assay is Nav 1.7 (human SCN9A) (Homo sapiens, UniProt Q15858). The experiment in a line: Measurement of Na ion current by automated patch clamp assay in cells stably-expressing human SCN9A. As to conditions: compound concentration 10 μmol/L; peak current at 30th depolarizing pulse (10 Hz); holding potential inactivating 50% Nav 1.7 channel (around −60 mV); room temperature; read-out: Inhibitory rate (%) of Na ion current. The class given is cell-based. The method, then:
Measurement of Na Ion Current in Voltage-Dependent Na Channel Gene Expressed Cell
Nav 1.7 current was measured by automated patch clamp assay using cells stably-expressing human SCN9A.
Cells Stably-Expressing Human SCN9A
Tetracycline-induced cells stably-expressing SCN9A were obtained from ChanTest Corporation. The cells were passaged in Ham's F-12 medium containing […], 100 units/mL Penicillin-Streptomycin, 0.01 mg/mL Blasticidin, and 400 μg/mL Zeocin. The cell seeded on a glass slide was cultured in Ham's F-12 medium containing 1 μg/mL tetracycline, 1 μg/mL sodium butyrate, 10% fetal bovine serum, and 100 units/mL Penicillin-Streptomycin. Next day, the Na ion current was measured by automated patch clamp assay.
Electrophysiologic Measurement of Na Ion Current
The Na ion current was measured by automated patch clamp assay using the following extracellular solution and intracellular solution.
Extracellular solution (mmol/L): NaCl 130, MgCl2 2, CaCl2) 2, CdCl2 0.1, NiCl2 0.1, Tetraethylammonium-Cl 18, 4-aminopyridine 1, HEPES (4-(2-hydroxyethyl)-1-piperazineethanesulfonic acid) 10, (adjusting pH 7.4 with NaOH)
Intracellular solution (mmol/L): CsF 120, EGTA (ethylene glycol tetraacetic acid) 10, NaCl 15, HEPES 10, (adjusting pH 7.2 with CsOH)
The control of the stimulating pulse and the data acquisition were carried out using EPC10 amplifier and Patch Master Software (HEKA). Data were sampled at 20 kHz, and low-pass filtered at 2.9 kHz. All the measurements were carried out at room temperature. The holding potential was set at a potential inactivating 50% Nav 1.7 channel (around −60 mV), and depolarizing pulse of 20 milliseconds (around 0 mV) was given at a frequency of 10 Hz 30 times. […] The inhibitory rate of the Na ion current by the test compounds was calculated according to the following calculating formula with the peak current value generated by the 30th depolarizing pulse.
Inhibitory rate of Na ion current (%)=100×[(Peak current value in the absence of Test Compound)−(Peak current value in the presence of Test Compound)]/(Peak current value in the absence of Test Compound)
Consider `O=c1[nH]c2ccc(Oc3ccc(OC(F)(F)F)cc3)cc2n1CC1(O)COC1` [Example 5, 1-[(3-hydroxyoxetan-3-yl)methyl]-6-[4-(trifluoromethoxy)phenoxy]-1,3-dihydro-2H-benzimidazol-2-one], for which the inhibition at 10 µM is 86%. For the molecule `CC(C)(O)Cn1c(=O)[nH]c2cc(-c3ccc(F)cc3)ccc21` [Example 24, 5-(4-fluorophenyl)-1-(2-hydroxy-2-methylpropyl)-1,3-dihydro-2H-benzimidazol-2-one], the inhibition at 10 µM was determined as 45%. For `CC(C)(O)Cn1c(=O)[nH]c2ccc(Oc3ccc(C(F)(F)F)cn3)cc21` [Example 1, 1-(2-hydroxy-2-methylpropyl)-6-{[5-(trifluoromethyl)pyridin-2-yl]oxy}-1,3-dihydro-2H-benzimidazol-2-one] the value was 33%; for `O=c1[nH]c2ccc(Oc3ccc(C(F)(F)F)cn3)cc2n1[C@H]1CC[C@@H](O)CC1` [Example 4, 1-(cis-4-hydroxycyclohexyl)-6-{[5-(trifluoromethyl)pyridin-2-yl]oxy}-1,3-dihydro-2H-benzimidazol-2-one], 39%; for `Cn1c(=O)n(CC2(O)COC2)c2cc(Oc3ccc(C(F)(F)F)nc3)ccc21` [Example 15, 3-[(3-hydroxyoxetan-3-yl)methyl]-1-methyl-5-{[6-(trifluoromethyl)pyridin-3-yl]oxy}-1,3-dihydro-2H-benzimidazol-2-one], 46%. The figure for `Cn1c(=O)n(CC2(O)COC2)c2cc(Oc3ccc(C(F)(F)F)cn3)ccc21` [Example 14, 3-[(3-hydroxyoxetan-3-yl)methyl]-1-methyl-5-{[5-(trifluoromethyl)pyridin-2-yl]oxy}-1,3-dihydro-2H-benzimidazol-2-one] is 39%. The figure for `Cn1c(=O)n(CC2(O)COC2)c2cc(Oc3ccc(OC(F)(F)F)cc3)ccc21` [Example 17, 3-[(3-hydroxyoxetan-3-yl)methyl]-1-methyl-5-[4-(trifluoromethoxy)phenoxy]-1,3-dihydro-2H-benzimidazol-2-one] is 87%; for `O=c1[nH]c2ccc(Oc3ccc(F)cc3)cc2n1CC1(O)COC1` [Example 7, 6-(4-fluorophenoxy)-1-[(3-hydroxyoxetan-3-yl)methyl]-1,3-dihydro-2H-benzimidazol-2-one] it is 40%; for `Cn1c(=O)n(CC2(O)COC2)c2cc(Oc3ccc(F)cc3)ccc21` [Example 16, 5-(4-fluorophenoxy)-3-[(3-hydroxyoxetan-3-yl)methyl]-1-methyl-1,3-dihydro-2H-benzimidazol-2-one] it is 61%. Regarding `O=c1[nH]c2cc(Oc3ccc(OC(F)(F)F)cc3)ccc2n1CC1(O)COC1` [Example 27, 1-[(3-hydroxyoxetan-3-yl)methyl]-5-[4-(trifluoromethoxy)phenoxy]-1,3-dihydro-2H-benzimidazol-2-one], the inhibition at 10 µM was 38%.

For `O=c1[nH]c2ccc(Oc3ccc(C(F)(F)F)cn3)cc2n1CC1(O)COC1` [Example 2, 1-[(3-hydroxyoxetan-3-yl)methyl]-6-{[5-(trifluoromethyl)pyridin-2-yl]oxy}-1,3-dihydro-2H-benzimidazol-2-one], the inhibition at 10 µM was 26%. For `CC(C)(O)Cn1c(=O)[nH]c2cc(Oc3ccc(C(F)(F)F)cn3)ccc21` [Example 26, 1-(2-hydroxy-2-methylpropyl)-5-{[5-(trifluoromethyl)pyridin-2-yl]oxy}-1,3-dihydro-2H-benzimidazol-2-one] the value was 32%. For `O=c1[nH]c2ccc(Oc3ccc(F)cc3)cc2n1[C@H]1CC[C@@H](O)CC1` [Example 11, 6-(4-fluorophenoxy)-1-(cis-4-hydroxycyclohexyl)-1,3-dihydro-2H-benzimidazol-2-one] the value was 65%; for `CC(C)(O)Cn1c(=O)[nH]c2ccc(-c3ccc(C(F)(F)F)cn3)cc21` [Example 20, 1-(2-hydroxy-2-methylpropyl)-6-[5-(trifluoromethyl)pyridin-2-yl]-1,3-dihydro-2H-benzimidazol-2-one], 29%. For `CC(C)(O)Cn1c(=O)[nH]c2ccc(-c3ccc(C(F)(F)F)cc3)cc21` [Example 21, 1-(2-hydroxy-2-methylpropyl)-6-[4-(trifluoromethyl)phenyl]-1,3-dihydro-2H-benzimidazol-2-one] the value was 96%; for `C[C@H](n1c(=O)[nH]c2ccc(Oc3ccc(C(F)(F)F)cn3)cc21)C(C)(C)O` [Example 9, 1-[(2S)-3-hydroxy-3-methylbutan-2-yl]-6-{[5-(trifluoromethyl)pyridin-2-yl]oxy}-1,3-dihydro-2H-benzimidazol-2-one], 27%. Regarding `CC(C)(O)Cn1c(=O)[nH]c2ccc(Oc3ccc(F)cc3)cc21` [Example 6, 6-(4-fluorophenoxy)-1-(2-hydroxy-2-methylpropyl)-1,3-dihydro-2H-benzimidazol-2-one], the inhibition at 10 µM came to 40%. For `Cn1c(=O)n(CC2(O)COC2)c2cc(Oc3ccc(Cl)cc3)ccc21` [Example 18, 5-(4-chlorophenoxy)-3-[(3-hydroxyoxetan-3-yl)methyl]-1-methyl-1,3-dihydro-2H-benzimidazol-2-one] the value was 86%; for `C[C@H](n1c(=O)[nH]c2ccc(Oc3ccc(F)cc3)cc21)C(C)(C)O` [Example 10, 6-(4-fluorophenoxy)-1-[(2S)-3-hydroxy-3-methylbutan-2-yl]-1,3-dihydro-2H-benzimidazol-2-one], 50%.

Consider `CC(C)(O)Cn1c(=O)[nH]c2ccc(-c3ccc(C(F)(F)F)nc3)cc21` [Example 19, 1-(2-hydroxy-2-methylpropyl)-6-[6-(trifluoromethyl)pyridin-3-yl]-1,3-dihydro-2H-benzimidazol-2-one], for which the inhibition at 10 µM was 8%.

As for `Cn1c(=O)n(CC(C)(C)O)c2cc(Oc3ccc(C(F)(F)F)cn3)ccc21` [Example 13, 3-(2-hydroxy-2-methylpropyl)-1-methyl-5-{[5-(trifluoromethyl)pyridin-2-yl]oxy}-1,3-dihydro-2H-benzimidazol-2-one], the inhibition at 10 µM amounted to 38%. For `CC(C)(O)Cn1c(=O)[nH]c2cc(-c3ccc(C(F)(F)F)nc3)ccc21` [Example 23, 1-(2-hydroxy-2-methylpropyl)-5-[6-(trifluoromethyl)pyridin-3-yl]-1,3-dihydro-2H-benzimidazol-2-one] the value was 36%; for `CC(C)(O)Cn1c(=O)[nH]c2ccc(-c3ccc(F)cc3)cc21` [Example 22, 6-(4-fluorophenyl)-1-(2-hydroxy-2-methylpropyl)-1,3-dihydro-2H-benzimidazol-2-one], 43%. For `CCn1c(=O)n(CC(C)(C)O)c2cc(Oc3ccc(C(F)(F)F)cn3)ccc21` [Example 12, 1-ethyl-3-(2-hydroxy-2-methylpropyl)-5-{[5-(trifluoromethyl)pyridin-2-yl]oxy}-1,3-dihydro-2H-benzimidazol-2-one] the value was 14%; for `CC(C)(O)Cn1c(=O)[nH]c2cc(Oc3ccc(OC(F)(F)F)cc3)ccc21` [Example 25, 1-(2-hydroxy-2-methylpropyl)-5-[4-(trifluoromethoxy)phenoxy]-1,3-dihydro-2H-benzimidazol-2-one], 42%; for `O=c1[nH]c2ccc(Oc3ccc(C(F)(F)F)nc3)cc2n1CC1(O)COC1` [Example 3, 1-[(3-hydroxyoxetan-3-yl)methyl]-6-{[6-(trifluoromethyl)pyridin-3-yl]oxy}-1,3-dihydro-2H-benzimidazol-2-one], 22%.

As for `Cn1c(=O)n(CC2(O)COC2)c2ccc(Oc3ccc(OC(F)(F)F)cc3)cc21` [Example 28, 1-[(3-hydroxyoxetan-3-yl)methyl]-3-methyl-5-[4-(trifluoromethoxy)phenoxy]-1,3-dihydro-2H-benzimidazol-2-one], the inhibition at 10 µM was determined as 39%. For `O=c1[nH]c2ccc(Oc3ccc(Cl)cc3)cc2n1CC1(O)COC1` [Example 8, 6-(4-chlorophenoxy)-1-[(3-hydroxyoxetan-3-yl)methyl]-1,3-dihydro-2H-benzimidazol-2-one] the value was 80%.
